Results as given in PubChem BioAssay AID743420 (The Scripps Research Institute Molecular Screening Center, 2014).
Active and inactive are the calls of the source. The rule behind the calls is not given here.

Target: Sphingosine 1-phosphate receptor 5 (Homo sapiens) (UniProt Q9H228)
Assay: S1P5 receptor agonist activity, late-stage follow-up, counter-screen for S1PR3 antagonist project, cell-based, FRET, dose response (AID 743420)
Conditions: S1P5 cell-based FRET assay, agonist mode

Sphingosine 1-phosphate receptor 5 (Homo sapiens), sequence (Q9H228 whole entry, looked up): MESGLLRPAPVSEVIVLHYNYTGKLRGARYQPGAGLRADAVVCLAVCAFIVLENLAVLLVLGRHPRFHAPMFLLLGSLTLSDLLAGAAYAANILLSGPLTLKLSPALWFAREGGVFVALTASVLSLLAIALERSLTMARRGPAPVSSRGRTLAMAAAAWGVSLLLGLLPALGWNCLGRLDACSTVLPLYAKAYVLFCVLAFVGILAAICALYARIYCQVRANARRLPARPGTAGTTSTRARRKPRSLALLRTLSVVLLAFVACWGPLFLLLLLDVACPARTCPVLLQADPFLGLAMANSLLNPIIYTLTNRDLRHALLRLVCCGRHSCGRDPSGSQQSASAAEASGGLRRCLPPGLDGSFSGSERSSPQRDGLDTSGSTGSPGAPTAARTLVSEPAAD

Row | Structure (SMILES) | EC50
1 | O=C(NC(c1cccc(Cl)c1)c1nc(-c2ccccc2)no1)c1ccc(Cl)c(Cl)c1 (configuration not stated) | > 28.2 µM (inactive)
2 | O=C(NC(c1ccccc1)c1nc(-c2ccccc2)no1)c1cccc(Cl)c1 (configuration not stated) | > 28.2 µM (inactive)
3 | COc1ccc(C(=O)NC(c2ccccc2)c2nc(-c3ccccc3)no2)cc1 (configuration not stated) | > 28.2 µM (inactive)
4 | O=C(NC(c1ccc(Cl)cc1)c1nc(-c2ccccn2)no1)c1cccc(Cl)c1 (configuration not stated) | > 28.2 µM (inactive)
5 | O=C(NC(c1ccc(Cl)c(Cl)c1)c1nc(-c2ccccc2)no1)c1cccc(Cl)c1 (configuration not stated) | > 28.2 µM (inactive)
6 | O=C(NC(c1ccc(Cl)cc1)c1nc(-c2ccccc2)no1)c1cccc(Br)c1 (configuration not stated) | > 28.2 µM (inactive)
7 | O=C(NC(c1nc(-c2ccccc2)no1)C1CCCCC1)c1ccc(Cl)c(Cl)c1 (configuration not stated) | > 28.2 µM (inactive)
8 | O=C(NC(c1ccc(Cl)c(Cl)c1)c1nc(-c2ccccc2)no1)c1ccc(Cl)c(Cl)c1 (configuration not stated) | > 28.2 µM (inactive)
9 | N#Cc1ccc(C(=O)NC(c2ccc(Cl)c(Cl)c2)c2nc(-c3ccccc3)no2)cc1 (configuration not stated) | > 28.2 µM (inactive)
10 | O=C(NC(c1ccc(Br)cc1)c1nc(-c2ccccc2)no1)c1ccc(Cl)c(Cl)c1 (configuration not stated) | > 28.2 µM (inactive)
11 | O=C(NC(c1ccc(Cl)c(Cl)c1)c1nc(-c2ccccc2)no1)c1ccccc1 (configuration not stated) | > 28.2 µM (inactive)
12 | O=C(NC(c1cccc(Cl)c1)c1nc(-c2ccccc2)no1)c1cccc(Cl)c1 (configuration not stated) | > 28.2 µM (inactive)
13 | O=C(NC(c1cccc(Cl)c1)c1nc(-c2ccccc2)no1)c1cc(Cl)cc(Cl)c1 (configuration not stated) | > 28.2 µM (inactive)
14 | O=C(NC(c1ccc(Cl)cc1)c1nc(-c2ccccc2)no1)c1cccc(Cl)c1 (configuration not stated) | > 28.2 µM (inactive)
15 | Cc1ccc(C(NC(=O)c2cccc(Cl)c2)c2nc(-c3ccccc3)no2)cc1 (configuration not stated) | > 28.2 µM (inactive)
16 | O=C(NC(c1ccccc1)c1nc(-c2ccccc2)no1)c1cccc(Cl)n1 (configuration not stated) | > 28.2 µM (inactive)
17 | O=C(NC(c1ccc(Cl)cc1)c1nc(-c2ccccc2)no1)c1ccc(Cl)c(Br)c1 (configuration not stated) | > 28.2 µM (inactive)
18 | O=C(NC(c1ccc(Cl)cc1)c1nc(-c2cccc(Cl)c2)no1)c1cccc(Cl)c1 (configuration not stated) | > 28.2 µM (inactive)
19 | O=C(NC(Cc1ccccc1)c1nc(-c2ccccc2)no1)c1cccc(Cl)c1 (configuration not stated) | > 28.2 µM (inactive)
20 | O=C(c1cccc(Cl)c1)N(CCO)C(c1ccc(Cl)c(Cl)c1)c1nc(-c2ccccc2)no1 (configuration not stated) | > 28.2 µM (inactive)
21 | CCc1ccc(C(NC(=O)c2cccc(Cl)c2)c2nc(-c3ccccc3)no2)cc1 (configuration not stated) | > 28.2 µM (inactive)
22 | O=C(NC(c1ccccc1)c1nc(-c2ccccc2)no1)c1ccc(Cl)cc1 (configuration not stated) | > 28.2 µM (inactive)
23 | O=C(NC(c1ccccc1)c1nc(-c2ccccc2)no1)c1cccc(Br)c1 (configuration not stated) | > 28.2 µM (inactive)
24 | O=C(NC(c1ccc(Cl)c(Cl)c1)c1nc(-c2ccccc2)no1)c1ccc(Cl)cc1 (configuration not stated) | > 28.2 µM (inactive)
25 | O=C(NC(c1ccc(Cl)cc1)c1nc(-c2ccccc2)no1)c1ccc(Cl)c(Cl)c1 (configuration not stated) | > 28.2 µM (inactive)
26 | Cc1ccc(C(=O)NC(c2ccccc2)c2nc(-c3ccccc3)no2)cc1 (configuration not stated) | > 28.2 µM (inactive)
27 | O=C(NC(c1nc(-c2ccccc2)no1)C1CCOCC1)c1ccc(Cl)c(Cl)c1 (configuration not stated) | > 28.2 µM (inactive)
